Assay results published in article doi:10.1101/2020.06.18.159418v1 (biorxiv, 2020).

Legend:
Assay type in all cases: binding
HuPrP90-231 [1] = target: T1, HuPrP90-231 (Homo sapiens, UniProt P04156)
T1 construct: gene PRNP

HuPrP90-231 [2] = target: T1, HuPrP90-231; assay: biochemical
HuPrP23-231 = target: T2, HuPrP23-231 (Homo sapiens, UniProt P04156); settings: 0.3-1 mM compound, 20 mM HEPES pH 7.4, 150 mM NaCl, 3% DMSO, 298 K
T2 construct: gene PRNP

With `Cc1nc2cc(Cl)c(Cl)cc2[nH]1` [compound 1, 5,6-dichloro-2-methyl-1H-benzimidazole] the “decrease in melting temperature” value (HuPrP90-231 [1]) was ~ 0.2 °C, the Kd (HuPrP90-231 [2]) was over 1 mM and the “1H-15N TROSY NMR chemical shift perturbation” value (HuPrP23-231) was “we observed similar resonance shifts in the full-length protein HuPrP23-231”.
